Test results from paper PMC11286144 (Archives of biochemistry and biophysics, 2024).
“And” between values parts separate entries of the source, which are not always exact repeats. Equal entries are not always repeated.

What was measured:
Assay in all cases: BFC debenzylase activity assay
CYP3A4 (WT) = CYP3A4 (WT) (Homo sapiens, UniProt P08684)
K266A CYP3A4 = K266A CYP3A4 (Homo sapiens, UniProt P08684, K266A)
K257A CYP3A4 = K257A CYP3A4 (Homo sapiens, UniProt P08684, K257A)
Sequence of K257A CYP3A4 (P08684 whole entry K257A): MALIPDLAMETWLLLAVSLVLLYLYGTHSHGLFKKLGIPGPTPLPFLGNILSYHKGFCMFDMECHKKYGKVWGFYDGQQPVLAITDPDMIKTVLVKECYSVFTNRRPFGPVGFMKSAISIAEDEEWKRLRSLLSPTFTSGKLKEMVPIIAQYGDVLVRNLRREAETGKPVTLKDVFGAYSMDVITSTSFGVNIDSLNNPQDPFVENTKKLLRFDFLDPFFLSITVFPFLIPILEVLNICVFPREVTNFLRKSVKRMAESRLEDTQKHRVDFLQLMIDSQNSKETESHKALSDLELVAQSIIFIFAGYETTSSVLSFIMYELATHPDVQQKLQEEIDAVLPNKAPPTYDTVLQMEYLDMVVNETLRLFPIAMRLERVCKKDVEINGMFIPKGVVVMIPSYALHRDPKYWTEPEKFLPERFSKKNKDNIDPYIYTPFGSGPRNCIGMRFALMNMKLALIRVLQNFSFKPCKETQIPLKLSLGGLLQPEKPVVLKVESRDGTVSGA

Sequence of K266A CYP3A4 (P08684 whole entry K266A): as the sequence (P08684 whole entry K257A) above, with A257K, K266A counted along it
Sequence of CYP3A4 (WT) (P08684 whole entry): as the sequence (P08684 whole entry K257A) above, with A257K counted along it

## O=c1cc(C(F)(F)F)c2ccc(OCc3ccccc3)cc2o1 [BFC]
CYP3A4 (WT)
  nH (Hill coefficient): 1.8 and 1.8 ± 0.1
K266A CYP3A4; K266A CYP3A4
  nH (Hill coefficient): 1.9 and 1.9 ± 0.1
K266A CYP3A4; K266A CYP3A4 vs WT
  higher Vmax than wild type: 44%
K257A CYP3A4; K257A CYP3A4
  nH (Hill coefficient): 1.0
K257A CYP3A4; K257A CYP3A4 vs WT
  higher Vmax than wild type: 28%
